# Test system: DBA/2 mice
# Experiment: Auditory evoked potential test in DBA/2 mice
# Type: in vivo, mouse
# Details: s.c.; male DBA/2 mice; TC ratio vs baseline, p<0.05
# Excerpt: A number of compounds according to the invention have proven active in the auditory evoked potential test. […] The DBA/2 mouse has proven to be a useful model of schizophrenia-like sensory processing deficits. Human studies of nicotine effects on sensory processing predicted the results in the DBA/2 mouse and studies with the selective alpha 7 agonist GTS-21 in DBA/2 mice, predicted the effects in humans. This model of sensory gating ability therefore has high translational relevance.
# The vehicle used was 20% hydroxypropyl-β-cyclodextrin (HP-β-CD) in water, acidified slightly with a few drops of tartaric acid. Both drug solution and vehicle were administered s.c. in a volume of 4 ml/kg. […]
# The ratio of the P20-N40 amplitude of response to the second (test) stimulus and the first (conditioning) stimulus provides a measure of sensory inhibition; the ratio of the test to the conditioning amplitude (TC ratio) is 0.5 or less for most rodent strains and normal humans. […] The maximum negativity between 20 and 60 ms after the two stimuli was selected as the N40 wave and measured relative to the preceding positivity, the P20 wave. The amplitude from the P20 to the N40 wave was determined for both the conditioning and the test response. […]
# All data were analyzed by multivariate analysis of variance with repeated measures. […]
row,Structure (SMILES),lowest active dose
1,"Cc1cc(-c2sc(N3C[C@@H](C)O[C@@H](C)C3)nc2CNC(=O)CC2CC2)cc(C)n1 [Compound 1, N-[[2-[(2R,6S)-2,6-dimethyl-4-morpholinyl]-5-(2,6-dimethyl-4-pyridinyl)-4-thiazolyl]methyl]-cyclopropaneacetamide]",0.63 mg/kg
2,"Cc1cc(-c2sc(N3C[C@@H](C)O[C@@H](C)C3)nc2CNC(=O)c2conc2C)cc(C)n1 [Compound 18, N-[[2-[(2R,6S)-2,6-dimethyl-4-morpholinyl]-5-(2,6-dimethyl-4-pyridinyl)-4-thiazolyl]methyl]-3-methyl-4-isoxazolecarboxamide]",0.04 mg/kg

# — US8637510B2, “Morpholinothiazoles as alpha 7 positive allosteric modulators” (Janssen Pharmaceutica NV, priority 2009, dated 2014)
